Marks after values point to notes of the source that are not given here.

In this experiment the test system is BRD pathogens, M. haemolytica and P. multocida. Kind of experiment: In-vitro MIC model, BRD pathogen screening panel. The experiment is classed as cell-based, Mannheimia haemolytica; Pasteurella multocida. The note with it: at least one BRD strain.
For `CCCNC[C@]1(O)[C@H](C)O[C@@H](O[C@H]2[C@H](C)[C@@H](O[C@@H]3O[C@H](C)C[C@H](NC)[C@H]3Oc3ccc(OC)c(OC)c3)[C@](C)(O)C[C@@H](C)CN[C@H](C)[C@@H](O)[C@](C)(O)[C@@H](CC)OC(=O)[C@@H]2C)C[C@@]1(C)OC` [Example E-74], the “MIC flag at the example number (Table E)” value is given as “E-74* (MIC ≤ 64 μg/mL for at least one BRD strain)”.
Turning to `CCCNC[C@]1(O)[C@H](C)O[C@@H](O[C@H]2[C@H](C)[C@@H](O[C@@H]3O[C@H](C)C[C@H](NC)[C@H]3Oc3ccc(-n4cccc4)cc3)[C@](C)(O)C[C@@H](C)CN[C@H](C)[C@@H](O)[C@](C)(O)[C@@H](CC)OC(=O)[C@@H]2C)C[C@@]1(C)OC` [Example E-82], the “MIC flag at the example number (Table E)” value is on record as “E-82* (MIC ≤ 64 μg/mL for at least one BRD strain)”.
Then `CCCNC[C@]1(O)[C@H](C)O[C@@H](O[C@H]2[C@H](C)[C@@H](O[C@@H]3O[C@H](C)C[C@H](N(C)C)[C@H]3Oc3ccccc3Cl)[C@](C)(O)C[C@@H](C)CN[C@H](C)[C@@H](O)[C@](C)(O)[C@@H](CC)OC(=O)[C@@H]2C)C[C@@]1(C)OC` [Example E-83], with “E-83* (MIC ≤ 64 μg/mL for at least one BRD strain)”; and `CCCNC[C@]1(O)[C@H](C)O[C@@H](O[C@H]2[C@H](C)[C@@H](O[C@@H]3O[C@H](C)C[C@H](N(C)C)[C@H]3Oc3ccc4ccncc4c3)[C@](C)(O)C[C@@H](C)CN[C@H](C)[C@@H](O)[C@](C)(O)[C@@H](CC)OC(=O)[C@@H]2C)C[C@@]1(C)OC` [Example E-85], with “E-85* (MIC ≤ 64 μg/mL for at least one BRD strain)”; and `CCCNC[C@]1(O)[C@H](C)O[C@@H](O[C@H]2[C@H](C)[C@@H](O[C@@H]3O[C@H](C)C[C@H](N(C)C)[C@H]3Oc3ccc(OC)c(OCC)c3)[C@](C)(O)C[C@@H](C)CN[C@H](C)[C@@H](O)[C@](C)(O)[C@@H](CC)OC(=O)[C@@H]2C)C[C@@]1(C)OC` [Example E-88], with “E-88* (MIC ≤ 64 μg/mL for at least one BRD strain)”.
For `CCCNC[C@]1(O)[C@H](C)O[C@@H](O[C@H]2[C@H](C)[C@@H](O[C@@H]3O[C@H](C)C[C@H](N(C)C)[C@H]3Oc3ccc(C(=O)N4CCCC4)cc3)[C@](C)(O)C[C@@H](C)CN[C@H](C)[C@@H](O)[C@](C)(O)[C@@H](CC)OC(=O)[C@@H]2C)C[C@@]1(C)OC` [Example E-95], the “MIC flag at the example number (Table E)” value is recorded as “E-95* (MIC ≤ 64 μg/mL for at least one BRD strain)”.
As for `CCCNC[C@]1(O)[C@H](C)O[C@@H](O[C@H]2[C@H](C)[C@@H](O[C@@H]3O[C@H](C)C[C@H](N(C)C)[C@H]3Oc3ccccc3OCC)[C@](C)(O)C[C@@H](C)CN[C@H](C)[C@@H](O)[C@](C)(O)[C@@H](CC)OC(=O)[C@@H]2C)C[C@@]1(C)OC` [Example E-96], the entry is “E-96* (MIC ≤ 64 μg/mL for at least one BRD strain)”; as for `CCCNC[C@]1(O)[C@H](C)O[C@@H](O[C@H]2[C@H](C)[C@@H](O[C@@H]3O[C@H](C)C[C@H](N(C)C)[C@H]3Oc3ccc(OC)cc3OC)[C@](C)(O)C[C@@H](C)CN[C@H](C)[C@@H](O)[C@](C)(O)[C@@H](CC)OC(=O)[C@@H]2C)C[C@@]1(C)OC` [Example E-97], “E-97* (MIC ≤ 64 μg/mL for at least one BRD strain)”.
Then `CCCNC[C@]1(O)[C@H](C)O[C@@H](O[C@H]2[C@H](C)[C@@H](O[C@@H]3O[C@H](C)C[C@H](NC)[C@H]3Oc3ccc(OC(F)(F)F)cc3)[C@](C)(O)C[C@@H](C)CN[C@H](C)[C@@H](O)[C@](C)(O)[C@@H](CC)OC(=O)[C@@H]2C)C[C@@]1(C)OC` [Example E-101], with “E-101* (MIC ≤ 64 μg/mL for at least one BRD strain)”; and `CCCNC[C@]1(O)[C@H](C)O[C@@H](O[C@H]2[C@H](C)[C@@H](O[C@@H]3O[C@H](C)C[C@H](NC)[C@H]3Oc3ccc(C)cc3)[C@](C)(O)C[C@@H](C)CN[C@H](C)[C@@H](O)[C@](C)(O)[C@@H](CC)OC(=O)[C@@H]2C)C[C@@]1(C)OC` [Example E-103], with “E-103* (MIC ≤ 64 μg/mL for at least one BRD strain)”; and `CCCNC[C@]1(O)[C@H](C)O[C@@H](O[C@H]2[C@H](C)[C@@H](O[C@@H]3O[C@H](C)C[C@H](NC)[C@H]3Oc3ccc(C(F)(F)F)cc3)[C@](C)(O)C[C@@H](C)CN[C@H](C)[C@@H](O)[C@](C)(O)[C@@H](CC)OC(=O)[C@@H]2C)C[C@@]1(C)OC` [Example E-104], with “E-104* (MIC ≤ 64 μg/mL for at least one BRD strain)”.
As for `CCCNC[C@]1(O)[C@H](C)O[C@@H](O[C@H]2[C@H](C)[C@@H](O[C@@H]3O[C@H](C)C[C@H](N(C)C)[C@H]3Oc3ccccc3C#N)[C@](C)(O)C[C@@H](C)CN[C@H](C)[C@@H](O)[C@](C)(O)[C@@H](CC)OC(=O)[C@@H]2C)C[C@@]1(C)OC` [Example E-105], the entry is “E-105* (MIC ≤ 64 μg/mL for at least one BRD strain)”; as for `CCCNC[C@]1(O)[C@H](C)O[C@@H](O[C@H]2[C@H](C)[C@@H](O[C@@H]3O[C@H](C)C[C@H](NC)[C@H]3Oc3ccc(Cl)cc3)[C@](C)(O)C[C@@H](C)CN[C@H](C)[C@@H](O)[C@](C)(O)[C@@H](CC)OC(=O)[C@@H]2C)C[C@@]1(C)OC` [Example E-106], “E-106* (MIC ≤ 64 μg/mL for at least one BRD strain)”.
As to `CC[C@H]1OC(=O)[C@H](C)[C@@H](O[C@H]2C[C@@](C)(OC)[C@](O)(CNCCN(C)C)[C@H](C)O2)[C@H](C)[C@@H](O[C@@H]2O[C@H](C)C[C@H](N(C)C)[C@H]2Oc2ccc(OC)cc2)[C@](C)(O)C[C@@H](C)CN[C@H](C)[C@@H](O)[C@]1(C)O` [Example E-107], the “MIC flag at the example number (Table E)” value is on record as “E-107* (MIC ≤ 64 μg/mL for at least one BRD strain)”.
On to `CCCN(C[C@]1(O)[C@H](C)O[C@@H](O[C@H]2[C@H](C)[C@@H](O[C@@H]3O[C@H](C)C[C@H](NC)[C@H]3Oc3ncccn3)[C@](C)(O)C[C@@H](C)CN[C@H](C)[C@@H](O)[C@](C)(O)[C@@H](CC)OC(=O)[C@@H]2C)C[C@@]1(C)OC)c1ncccn1` [Example E-118], for which the “MIC flag at the example number (Table E)” value is on record as “E-118* (MIC ≤ 64 μg/mL for at least one BRD strain)”.
Turning to `CCCN(C[C@]1(O)[C@H](C)O[C@@H](O[C@H]2[C@H](C)[C@@H](O[C@@H]3O[C@H](C)C[C@H](NC)[C@H]3Oc3ncc(Cl)cn3)[C@](C)(O)C[C@@H](C)CN[C@H](C)[C@@H](O)[C@](C)(O)[C@@H](CC)OC(=O)[C@@H]2C)C[C@@]1(C)OC)c1ncc(Cl)cn1` [Example E-119], the “MIC flag at the example number (Table E)” value is given as “E-119* (MIC ≤ 64 μg/mL for at least one BRD strain)”.
In the case of `CCCN(C[C@]1(O)[C@H](C)O[C@@H](O[C@H]2[C@H](C)[C@@H](O[C@@H]3O[C@H](C)C[C@H](NC)[C@H]3Oc3ncc(C#N)cn3)[C@](C)(O)C[C@@H](C)CN[C@H](C)[C@@H](O)[C@](C)(O)[C@@H](CC)OC(=O)[C@@H]2C)C[C@@]1(C)OC)c1ncc(C#N)cn1` [Example E-122], the “MIC flag at the example number (Table E)” value is “E-122* (MIC ≤ 64 μg/mL for at least one BRD strain)”.
With `CCCNC[C@]1(O)[C@H](C)O[C@@H](O[C@H]2[C@H](C)[C@@H](O[C@@H]3O[C@H](C)C[C@H](N(C)C)[C@H]3Oc3cccc(C)c3)[C@](C)(O)C[C@@H](C)CN[C@H](C)[C@@H](O)[C@](C)(O)[C@@H](CC)OC(=O)[C@@H]2C)C[C@@]1(C)OC` [Example E-123], the “MIC flag at the example number (Table E)” value was “E-123* (MIC ≤ 64 μg/mL for at least one BRD strain)”.

The values above are taken from US12390441B2, “Immunomodulating o-het/aryl azalides” (Zoetis Services LLC, priority 2020, dated 2025).
